# Laboratory results as given in patent US6117859A, “Method of relieving chronic inflammation by using 5-alkylsulfonylsalicylanilides” (The Research Foundation of State University of New York, priority 1999, dated 2000).
# Key:
# [1] = Solubility of representative compounds in various solvent systems; assay type: physicochemical
# Experimental: The solubility of representative compounds of this invention in various solvent systems was determined. The solvents included ethanol, propylene glycol, SLS, Tween 80™ and combinations thereof.
# [2] = test system: TPA treated mouse ear skin; assay: Histopathology of ear biopsies after multiple doses of TPA (epidermal thickness, dermal cellularity); assay type: in vivo, mouse (female CD-1)
# Experimental: The assay used female CD-1 mice (7-9 weeks of age). Following a 2-week quarantine, mice were randomly assigned to test groups (5 mice/groups). TPA (10 uL of 0.01 TPA in acetone) was administered to both the inner and outer surface of each ear (2μg/ear) on day 0,2,4,7, and 9 on protocol. On Day 7,8 and 9, two applications of test article were applied to each ear 2 and 4 hours after dosing with TPA. The test articles were administered in 10 uL aliquots to both the inner and outer surface of each ear (20 μl total/dose). The candidate drugs were tested at several different concentrations (e.g., 5, 1.25, and 0.125 mg/ear) to determine a maximum effective dose within a range that could be effectively applied. Hydrocortisone-17-valerate (HCV, 20μg/ear) was employed as a positive control. Mice were sacrificed at Day 10 on protocol and uniform punch biopsies (approximately 8 mm dia.) were taken from each ear. While on protocol, dermal irritation was scored semiquantitatively at Day 1,3,5,8, and 10.
# Inhibition of TPA stimulated increased ear weight was used as an initial measure of efficacy for all of the agents tested. One biopsy from each mouse was also quick frozen and stored at -70° C. for later assay of myleoperoxidase, an enzyme associated with infiltrating PMN, or other measure of efficacy. The remaining biopsy from each mouse treated with Trifluorosal or HCV was fixed in formalin and processed for histopathologic evaluation, including measurement of cellular infiltration (PMNs, endothelial cells, macrophages) and epidermal thickness at 20 random sites along the length of the specimen.
# In order to confirm the subjective observations, quantitative determinations of 3 parameters (epidermal thickness, dermal thickness, and dermal cellularity) in the skin of negative controls (acetone), positive controls (TPA), and TPA treated skin treated with 3 doses of test article (Trifluorosal) and hydrocortisone were carried out. Epidermal thickness reflects the reactive proliferative activity induced by TPA in the […]: dermal thickness reflects primarily Ad edema but may also be affected by other phenomena, such as formation of granulation tissue, collagen synthesis, the activity of myofibroblasts, etc. Cellularity of the dermis is frequently used as a surrogate marker of inflammatory changes in the dermis.
# Determination of the epidermal thickness was performed under the microscope with a calibrated scale placed in the eyepiece. Ten determinations were carried out in the epidermis covering the outside of the ear using a 40× objective and a 10× eyepiece (400× total). The measurements were taken from the basal side of the basal layer (basement membrane) to the outer side of the last nucleated cell of the […]. The average of the 10 measurements expressed in microns was entered in the table.
# Determination of dermal thickness was performed using a similar technique. To avoid variability caused by the difference in sizes between the base and tip of the ear, only 3 measurements were performed in the center of the sample. The measurements were performed from the basement membrane of the external and internal epithelial and therefore include, in addition to both dermis (external and internal), the cartilage.
# Cellularity of the dermis was calculated by projecting a calibrated grid into the dermis and counting cells in the known area of the dermis. Areas of hair follicles or sebaceous glands were avoided. Five fields were counted and the results were adjusted to the number of cells in 1,000 square microns.
# The results of individual animals were entered in the table and the averages and standard deviation were calculated using an EXCEL database. In addition, the results were also expressed as a percentage of the control (acetone treated). Furthermore, the percentage of inhibition of the test articles were calculated using the following formula: [formula]
# myeloperoxidase (MPO) = assay: Myeloperoxidase (MPO) activity in ear biopsies, acute TPA mouse ear assay; assay type: in vivo
# Text: The anti-inflammatory effect of selected compounds of this invention were compared to those of Triclosan™ and hydrocortisone in a modified […] (TPA) mouse ear inflammation assay. TPA was used as an inflammogen rather than croton oil because TPA gives a well characterized inflammatory response at very low concentrations. […] This model can therefore be used to study the pharmacokinetics, clinical efficacy and adverse side effects of anti-inflammatory agents. To quantitate inflammation, ear punches from treated animals were used to measure increased ear mass (edema) and myeloperoxidase (MPO) activity. For the inhibition studies, ear biopsies were weighed six hours after treatment with TPA and the simultaneous application of the compound of the present invention. All the compounds were diluted in acetone. Following this, the biopsies were frozen and subsequently used to measure inhibition of MPO activity, an estimate of polymorphonuclear (PMN) […] activity in the affected area. Percent inhibition of edema was calculated as [c-t]/c x 100, where c and t are increases in ear weight in control and treated mice, respectively.
# As a confirmation of the anti-inflammatory activity and in an attempt to further define the mechanism of inhibition produced by the alkylsulfonylsalicylanilides, MPO activity was measured in representative ear biopsies. The enzyme was extracted from the tissue by using a combination of homogenization in the presence of a detergent, freezing and thawing, and sonication. The change in absorbance was measured with time using o-dianisidine and H2 O2 as the substrate in an automated plate reader. As shown below, TPA-induced increase in MPO was inhibited in TMF-12 treated ears at a dose approximately 10-fold less than that which inhibited edema.
# Lipophilicity = assay type: physicochemical; conditions: compared with AMCF3-8
# Text: By the term "partition coefficient" as used herein for the purposes of specification and claims is meant the log10 P where P is the ratio of the molar concentrations of the compositions of the composition in octanol-water system. Partition coefficient is a measure of the lipophilic character of the compound. A partition coefficient of 4 therefore means that the ratio of the concentration of the composition in octanol to the concentration in water is 10^4 or 10,000 to 1.
compound,measurement,setting,value
CCCCCCCCCCCCS(=O)(=O)c1ccc(O)c(C(=O)Nc2cccc(C(F)(F)F)c2)c1 [TMF-12],solubility,[1]; +0.5% tween 80,1340 µg/mL
same,solubility,[1]; +1% sls,1660 µg/mL
same,solubility,[1]; +1.5% tween 80,4290 µg/mL
same,solubility,[1]; +2% SLS + 0.5% Tween 80,3540 µg/mL
same,solubility,[1]; +2% SLS + 1.0% Tween 80,4010 µg/mL
same,solubility,[1]; +2% SLS + 2.0% Tween 80,5860 µg/mL
same,solubility,[1]; +2% sls,2930 µg/mL
same,solubility,[1]; +3.0% tween 80,8340 µg/mL
same,solubility,[1]; +4% sls,5740 µg/mL
same,solubility,"[1]; aqueous buffer, pH 10 Na-buffer @ 22° C.",< 0.1 µg/mL
same,Solubility in anionic and nonionic surfactant solutions relative to AMCF3-8,[1]; compared with AMCF3-8,greater solubility than AMCF3-8
same,solubility,"[1]; organic solvent or mixture, Ethanol, 22° C.",13600 µg/mL
same,solubility,"[1]; organic solvent or mixture, Propylene Glycol @ 20° C.",6660 µg/mL
same,solubility,"[1]; ph 10 na-buffer +0.5% sls, pH 10 Na-buffer @ 22° C. +0.5% SLS",1280 µg/mL
same,"% Inhibition, Dermal Cellularity",[2]; 1.25 mg/ear,24.6%
same,"% Inhibition, Epidermal Thickness",[2]; 1.25 mg/ear,48.0%
same,"% Inhibition, Dermal Cellularity",[2]; 2.50 mg/ear,64.3%
same,"% Inhibition, Epidermal Thickness",[2]; 2.50 mg/ear,11.4%
same,"% Inhibition, Dermal Cellularity",[2]; 5.00 mg/ear,47.6%
same,"% Inhibition, Epidermal Thickness",[2]; 5.00 mg/ear,30.0%
same,Blood vessel prominence (in words),[2]; histopathology,Blood vessels were not as prominent
same,Cellularity of the dermis (in words),"[2]; histopathology, FIG. 1",reduced the epidermal thickness as well as the cellularity of the dermis
same,Epidermal thickness (in words),"[2]; histopathology, FIG. 1",reduced the epidermal thickness
same,MPO Activity,myeloperoxidase (MPO); TMF-12 0.8 mg/20 ml,590.2 D OD/min
same,MPO Activity,myeloperoxidase (MPO); TMF-12 1.24 mg/20 ml,327.3 D OD/min
same,MPO Activity,myeloperoxidase (MPO); TMF-12 8 mg/20 ml,56.5 D OD/min
same,MPO Activity,myeloperoxidase (MPO); TMF-12 12.4 mg/20 ml,54.8 D OD/min
same,MPO Activity,myeloperoxidase (MPO); TMF-12 80 mg/20 ml,27.6 D OD/min
same,MPO Activity,myeloperoxidase (MPO); TMF-12 124 mg/20 ml,21 D OD/min
same,"Dose inhibiting MPO increase, fold less than dose inhibiting edema",myeloperoxidase (MPO); compared with edema inhibition,approximately 10 fold
same,Lipophilicity relative to AMCF3-8,Lipophilicity,more lipophilic than AMCF3-8
